Data from US9862693B2, “Compounds and methods of treating cancer” (The Regents of the University of California, priority 2012, dated 2018).
“Also recorded” adds a separate entry of the source. Counter-ions that a name gives are not always drawn.

Key:
HCC1937 = assay: MTS cell number assay (CellTiter 96), TNBC cells; assay type: cell-based; conditions: 1 mM, 72 hours, MTS method
Procedure: (§1) FIGS. 2A-2D. Metformin analogues inhibit growth/survival of triple negative breast cancer cells. MDA-MB-231 (FIG. 2A), HCC38 (FIG. 2B), HCC1937 (FIG. 2C) and HCC1806 (FIG. 2D) cells were cultured in medium containing 1% fetal bovine serum and increasing concentrations of metformin and analogues JD001-JD009 (0.1, 1 and 5 mM). After 3 days, MTS assay was performed. The percentage of surviving cells relative to controls, defined as 100% survival, was determined by the MTS assay.
(§2) Cells were incubated in the presence of vehicle, metformin or metformin analogues for 72 hours in their respective media. After treatment cell numbers were determined with the MTS method using the CellTiter 96 Aqueous Non-Radioactive Cell Proliferation Assay (Promega). Numbers express percentage of vehicle treated controls at 1 mM concentration metformin or metformin analogues (JD001-JD009). TNBC: Triple Negative Breast Cancer Cells, ER+BC: Estrogen receptor positive breast cancer.

MDA-MB-231 = assay: MTS cell number assay (CellTiter 96), TNBC cells; assay type: cell-based; conditions: Homo sapiens, 1 mM, 72 hours, MTS method, read-out: Biodata TNBC MDA-MB-231, cell numbers as percentage of vehicle treated controls
Procedure: as §1, §2

MCF7 = assay: MTS cell number assay (CellTiter 96), ER+ breast cancer cells; assay type: cell-based; conditions: Homo sapiens, 1 mM, 72 hours, MTS method, read-out: ER+ BC MCF7, cell numbers as percentage of vehicle treated controls
Procedure: FIG. 1. Metformin analogues inhibit growth/survival of ER+ MCF7 breast cancer cells. MCF7 cells were cultured in medium containing different concentrations of metformin and analogues (0.1, 1 and 5 mM). After 3 days, the percentage of surviving cells relative to controls, defined as 100% survival, was determined by the MTS assay. Data represents three independent experiments.
Compounds described herein (e.g. metformin derivatives and/or analogues) were tested in human MCF-7 breast cancer cells, a standard ERalpha-positive model of breast malignancy (FIG. 1), and in four different cell lines classified as TNBC, including MDA-MB-231, HCC1937, HCC38 and HCC1806 (FIGS. 2A-2D). […] Experiments were also performed in: 1) a non-small cell lung cancer cell line that is known to be resistant to standard chemotherapy (A549); and 2) a melanoma-like cell model (MDA-MB-435). To find if analogues have effects on normal cells compounds were tested in two different types of cells, human umbilical vein endothelial cells (HUVEC) and human mammary epithelial cells (HMEC). The effects of metformin (MET) were compared with compounds JD001-JD009.
as §2

MCF-7 cells = assay: Cell proliferation ELISA, BrdU colorimetric kit; assay type: cell-based, human; conditions: 0.1 mM and 1 mM, BrdU incorporation, 1% FBS, P<0.01
Procedure: FIGS. 6A-6C. […] Proliferation was assessed using cell proliferation ELISA, BrdU colorimetric kit (Roche). Cells were counted using a hemocytometer and plated. After 24 hrs, cells were treated with metformin and analogs JD003 and JD004 at 0.1 mM and 1 mM doses using phenol-red free medium with 1% FBS. After 48 hr, BrDU labeling solution was added and incubated for 24 h. Proliferation was assessed using BrDU incorporation by ELISA during DNA synthesis in proliferating cells. Data shown as % control (mean±SE) (n=3 experiments).
We hypothesize that metformin analogs can be prepared with enhanced anticancer activity and minimal non-target toxicity. […] Human pancreatic cancer cells PANC-1, were grown in DMEM with 2 mM glutamine, 1 mM sodium pyruvate, 100 units/mL penicillin, 100 μg/mL streptomycin and 10% FBS at 37 C in a humidified atmosphere with 10% CO2. Then, effects of treatment with metformin or analog JD003 on cell proliferation in vitro were tested. […] In contrast, minimal antiproliferative effects are detected in nonmalignant human epithelial cells. […]
Cell proliferation screening assays were done using cell proliferation ELISA, BrdU colorimetric kit (Roche). Cells were counted using a hemocytometer and plated in 96-well plates. […] Cell proliferation were quantitated based on measures of BrDU incorporation (by ELISA) during DNA synthesis in proliferating cells. […] Results were expressed as mean±SE. […]

HUVEC = assay: MTS cell number assay (CellTiter 96), normal cells; assay type: cell-based; conditions: Homo sapiens, 1 mM, 72 hours, MTS method, read-out: Biodata Normal HUVEC, cell numbers as percentage of vehicle treated controls
Procedure: (§3) FIGS. 4A-4B. Effects of metformin and metformin analogues on normal cells. HMEC (FIG. 4A) and HUVEC (FIG. 4B) cells were plated in special media. After 24 hours, cells were treated with increasing concentrations of metformin and analogues JD001-JD009 (0.1, 1 and 5 mM). After 3 days, MTS assay was performed. Survival is expressed as percentage of vehicle treated control. Data represents at least two experiments.
(§4) The effects of compounds described herein (including embodiments) (e.g. metformin analogues) were determined on two types of normal nonmalignant human cells, human umbilical vein endothelial cells (HUVEC) and human mammary epithelial cells (HMEC). There were no significant biologic effects noted on exposure to the metformin analogues.
as §2

HMEC = assay: MTS cell number assay (CellTiter 96), normal cells; assay type: cell-based; conditions: Homo sapiens, 1 mM, 72 hours, MTS method, read-out: Biodata Normal HMEC, cell numbers as percentage of vehicle treated controls
Procedure: as §3, §4, §2

A549 = assay: MTS cell number assay (CellTiter 96), NSCLC cells; assay type: cell-based; conditions: Homo sapiens, 1 mM, 72 hours, MTS method, read-out: Biodata extra A549, cell numbers as percentage of vehicle treated controls
Procedure: (§5) FIGS. 3A-3B. Metformin analogues inhibit survival of non-small cell lung cancer (NSCLC) (FIG. 3A) and melanoma cell lines (FIG. 3B). A549 (NSCLC) and MDA-MB-435 (melanoma) cells were cultured in medium containing 1% fetal bovine serum and increasing concentrations of metformin (MET) and analogues JD001-JD007 (0.1, 1 and 5 mM). After 3 days, MTS assay was performed. Survival is expressed as percentage of control defined at 100%.
as §2

MDA-MB-435 = assay: MTS cell number assay (CellTiter 96), melanoma cells; assay type: cell-based; conditions: 1 mM, 72 hours, MTS method
Procedure: as §5, §2

HCC38 = assay: MTS cell number assay (CellTiter 96), TNBC cells; assay type: cell-based; conditions: 1 mM, 72 hours, MTS method
Procedure: as §1, §2

HCC1806 = assay: MTS cell number assay (CellTiter 96), TNBC cells; assay type: cell-based; conditions: 1 mM, 72 hours, MTS method
Procedure: as §1, §2

| Structure (SMILES) | Biodata TNBC HCC1937, cell numbers as percentage of vehicle treated controls (HCC1937) | viability at 1000 µM (MDA-MB-231) | viability at 1000 µM (MCF7) | Blocking proliferation of MCF-7 cells compared with metformin (MCF-7 cells) | viability at 1000 µM (HUVEC) | viability at 1000 µM (HMEC) | viability at 1000 µM (A549) | Biodata extra MDA-MB-435, cell numbers as percentage of vehicle treated controls (MDA-MB-435) | Biodata TNBC HCC38, cell numbers as percentage of vehicle treated controls (HCC38) | Biodata TNBC HCC1806, cell numbers as percentage of vehicle treated controls (HCC1806) |
| --- | --- | --- | --- | --- | --- | --- | --- | --- | --- | --- |
| CN1CCN(C(=N)NC(=N)N2CCN(C)CC2)CC1 [JD004, N-(Imino(4-methylpiperazin-1-yl)methyl)-4-methylpiperazine-1-carboximidamide hydro-chloride] | 64 percentage of vehicle treated controls | 89.2% | 84.4% | more effective in blocking proliferation of MCF-7 cells; also recorded: enhanced antiproliferative activity in breast cancer cells as compared to metformin | 89.1% | 113% | 74.3% | 59.6 percentage of vehicle treated controls | – | – |
| CON(C)C(=N)NC(=N)N [JD001, N-Methoxyl-N-methylbiguanide hydrochloride] | 68.9 percentage of vehicle treated controls | 92% | 82.3% | – | 84.4% | 101% | 62.6% | 102.1 percentage of vehicle treated controls | 102.5 percentage of vehicle treated controls | 80.1 percentage of vehicle treated controls |
| CC1CCN(C(=N)NC(=N)N)CC1 [JD009, N-Carbamimidoyl-4-methylpiperidine-1-carboximidamide, hydrochloride] | – | 0.3% | 52.7% | – | 39.5% | 48.8% | – | – | 0 percentage of vehicle treated controls | 7.3 percentage of vehicle treated controls |
| N=C(NC(=N)N1CCCC1)N1CCCC1 [JD006, N-(Imino(pyrrolidin-1-yl)methyl)pyrrolidine-1-carboximidamide hydrochloride] | – | – | 59.7% | – | 113% | 96.6% | 59.7% | – | – | – |
| CCCN(C)C(=N)NC(=N)N [JD008, N-Methyl-N-propylbiguanide hydrochloride] | – | 38.6% | 52.2% | – | 37.7% | 70.9% | – | – | 55.6 percentage of vehicle treated controls | 52.7 percentage of vehicle treated controls |
| N=C(NC(=N)N1CCCC1)N1CCCCC1 [JD005, N-(Imino(pyrrolidin-1-yl)methyl)piperidine-1-carboximidamide hydrochloride] | 15.7 percentage of vehicle treated controls | 46.6% | 58.2% | – | 54.6% | 67.6% | 32.4% | 42.2 percentage of vehicle treated controls | 43.4 percentage of vehicle treated controls | 55.8 percentage of vehicle treated controls |
| N=C(NC(=N)N1CCCCC1)N1CCCCC1 [JD002, N-(Imino(piperidin-1-yl)methyl)piperidine-1-carboximidamide hydrochloride] | 17.1 percentage of vehicle treated controls | 48.5% | 46.2% | – | 70% | 62.6% | 4.6% | 39.8 percentage of vehicle treated controls | 44.7 percentage of vehicle treated controls | 36.4 percentage of vehicle treated controls |
| CN(C)C(=N)NC(=N)N1CCOCC1 [JD007, N—(N,N-Dimethylcarbamimidoyl)morpholine-4-carboximidamide hydrochloride] | – | 64.3% | 65.8% | – | 112% | 105% | 82.3% | – | 83.6 percentage of vehicle treated controls | 65.7 percentage of vehicle treated controls |
